Where a name gives a salt, the structure may show the parent alone. Read-outs that look alike come from different tables or passages of the source. Square brackets hold non-standard residues; d marks the D form. Peptide text beside a SMILES is read from it. * marks the point of attachment. Sta = CC(C)C[C@H](N)[C@@H](O)CC(=O)O; Isovaleryl = CC(C)CC(=O)*
Columns and labels:
Set-up in all cases: species or system AML cell lines (8); Primary HTS, single concentration about 10 uM, Cell Titer Glo viability; log10 luminescence, per cent inhibition relative to cycloheximide control
Conditions in all cases: 72 h, relative to cycloheximide control, log10 luminescence, inhibitor
[1] = test system: CHRF288-11
[2] = test system: CMK
[3] = test system: CMS
[4] = test system: M07e
[5] = test system: ML-2
[6] = test system: MOLM-13
[7] = test system: MV4-11
[8] = test system: U937

C[C@H](CCC(=O)O)[C@H]1CC[C@H]2[C@@H]3CC[C@@H]4C[C@H](O)CC[C@]4(C)[C@H]3CC[C@]12C [SJ000286918-3, LITHOCHOLIC ACID]
CHRF288-11 %inh [1]: 7.532% | CMK %inh [2]: -0.09844% | CMS %inh [3]: 2.61% | M07e %inh [4]: 1.09% | ML-2 %inh [5]: 1.903% | MOLM-13 %inh [6]: 2.496% | MV4-11 %inh [7]: 1.619% | U937 %inh [8]: 0.7056%

CC1(C)O[C@@H]2C[C@H]3[C@@H]4CCC5=CC(=O)CC[C@]5(C)[C@@]4(F)[C@@H](O)C[C@]3(C)[C@]2(C(=O)CCl)O1 [SJ000286948-3, HALCINONIDE]
CHRF288-11 %inh [1]: 0.4115% | CMK %inh [2]: 7.614% | CMS %inh [3]: 6.83% | M07e %inh [4]: -3.04% | ML-2 %inh [5]: 2.814% | MOLM-13 %inh [6]: 15.68% | MV4-11 %inh [7]: 4.793% | U937 %inh [8]: 10.5%

CCCC(CCC)C(=O)O [SJ000287008-5, VALPROATE SODIUM | VALPROIC ACID SODIUM | DIVALPROEX SODIUM | SODIUM VALPROATE | ABBOTT-44090 | NIK-313 | NIK-317 | VALPROATE SODIUM | VALPROIC ACID SODIUM SALT | | SODIUM VALPROATE | VALPROATE SODIUM | VALPROIC ACID SODIUM SALT | ABBOTT-44090 | NIK-313 | NIK-317 | | SODIUM VALPROATE | VALPROIC ACID SODIUM SALT (SODIUM VALPROATE)]
CHRF288-11 %inh ([1]; CHRF288-11 %inh, 10 µM): 8.896% | CMK %inh ([2]; CMK %inh, 10 µM): -3.296% | CMS %inh ([3]; CMS %inh, 10 µM): 1.675% | M07e %inh ([4]; M07e %inh, 10 µM): -4.206% | ML-2 %inh ([5]; ML-2 %inh, 10 µM): 0.7854% | MOLM-13 %inh ([6]; MOLM-13 %inh, 10 µM): -1.216% | MV4-11 %inh ([7]; MV4-11 %inh, 10 µM): -0.02212% | U937 %inh ([8]; U937 %inh, 10 µM): -1.54%

CCCC(CCC)C(=O)O [SJ000287008-6, VALPROATE SODIUM | VALPROIC ACID SODIUM | DIVALPROEX SODIUM | SODIUM VALPROATE | ABBOTT-44090 | NIK-313 | NIK-317 | VALPROATE SODIUM | VALPROIC ACID SODIUM SALT | | SODIUM VALPROATE | VALPROATE SODIUM | VALPROIC ACID SODIUM SALT | ABBOTT-44090 | NIK-313 | NIK-317 | | SODIUM VALPROATE | VALPROIC ACID SODIUM SALT (SODIUM VALPROATE)]
CHRF288-11 %inh ([1]; CHRF288-11 %inh, 10 µM): 0.5614% | CMK %inh ([2]; CMK %inh, 10 µM): -3.672% | CMS %inh ([3]; CMS %inh, 10 µM): -1.126% | M07e %inh ([4]; M07e %inh, 10 µM): -0.5439% | ML-2 %inh ([5]; ML-2 %inh, 10 µM): -1.422% | MOLM-13 %inh ([6]; MOLM-13 %inh, 10 µM): -2.019% | MV4-11 %inh ([7]; MV4-11 %inh, 10 µM): -1.147% | U937 %inh ([8]; U937 %inh, 10 µM): -3.41%

CC1(C)O[C@@H]2C[C@H]3[C@@H]4C[C@H](F)C5=CC(=O)C=C[C@]5(C)[C@@]4(F)[C@@H](O)C[C@]3(C)[C@]2(C(=O)CO)O1 [SJ000287016-2, FLUOCINOLONE ACETONIDE]
CHRF288-11 %inh [1]: 4.658% | CMK %inh [2]: -1.286% | CMS %inh [3]: 9.034% | M07e %inh [4]: -0.198% | ML-2 %inh [5]: 2.188% | MOLM-13 %inh [6]: 1.204% | MV4-11 %inh [7]: 1.404% | U937 %inh [8]: 7.141%

C[C@]12CCC(=O)C=C1CC[C@@H]1[C@@H]2C(=O)C[C@@]2(C)[C@H]1CC[C@]2(O)C(=O)CO [SJ000287023-7, CORTISONE]
CHRF288-11 %inh [1]: 8.551% | CMK %inh [2]: -2.132% | CMS %inh [3]: -0.2521% | M07e %inh [4]: -0.4313% | ML-2 %inh [5]: -0.1775% | MOLM-13 %inh [6]: -2.413% | MV4-11 %inh [7]: -0.1807% | U937 %inh [8]: -1.735%

CCOC(=O)[C@H](CCc1ccccc1)N[C@@H](C)C(=O)N1[C@H](C(=O)O)C[C@@H]2CCC[C@@H]21 [SJ000287048-3]
CHRF288-11 %inh [1]: -4.815% | CMK %inh [2]: 1.362% | CMS %inh [3]: -0.1854% | M07e %inh [4]: -2.965% | ML-2 %inh [5]: -0.556% | MOLM-13 %inh [6]: -1.2% | MV4-11 %inh [7]: 3.659% | U937 %inh [8]: 1.846%

C[C@@H]1C[C@H]2[C@@H]3C[C@H](F)C4=CC(=O)C=C[C@]4(C)[C@@]3(F)[C@@H](O)C[C@]2(C)[C@@]1(O)C(=O)CO [SJ000287102-3, FLUMETHASONE]
CHRF288-11 %inh [1]: 4.435% | CMK %inh [2]: 4.189% | CMS %inh [3]: 2.822% | M07e %inh [4]: -0.252% | ML-2 %inh [5]: 1.1% | MOLM-13 %inh [6]: 0.6987% | MV4-11 %inh [7]: -0.9154% | U937 %inh [8]: 4.356%

CC1(C)O[C@@H]2C[C@H]3[C@@H]4C[C@H](F)C5=CC(=O)CC[C@]5(C)[C@H]4[C@@H](O)C[C@]3(C)[C@]2(C(=O)CO)O1 [SJ000287138-3, FLURANDRENOLIDE]
CHRF288-11 %inh [1]: 7.802% | CMK %inh [2]: -0.8734% | CMS %inh [3]: 0.1237% | M07e %inh [4]: -0.6056% | ML-2 %inh [5]: -1.728% | MOLM-13 %inh [6]: -1.421% | MV4-11 %inh [7]: -1.501% | U937 %inh [8]: 5.849%

CC(C)(C)c1ccc(C(O)CCCN2CCC(C(O)(c3ccccc3)c3ccccc3)CC2)cc1 (stereo not drawn) [SJ000287189-5, TERFENADINE]
CHRF288-11 %inh [1]: 1.988% | CMK %inh [2]: -4.344% | CMS %inh [3]: -3.743% | M07e %inh [4]: 132.8% | ML-2 %inh [5]: 1.525% | MOLM-13 %inh [6]: -1.727% | MV4-11 %inh [7]: 1.084% | U937 %inh [8]: 0.7714%

NCC1(CC(=O)O)CCCCC1 [SJ000287210-5, GABAPENTIN]
CHRF288-11 %inh [1]: -2.43% | CMK %inh [2]: 0.3533% | CMS %inh [3]: -2.432% | M07e %inh [4]: -2.786% | ML-2 %inh [5]: -3.023% | MOLM-13 %inh [6]: 0.8376% | MV4-11 %inh [7]: 5.813% | U937 %inh [8]: -1.755%

CC(C)CC(=O)N[C@H](C(=O)N[C@H](C(=O)N[C@@H](CC(C)C)[C@@H](O)CC(=O)N[C@@H](C)C(=O)N[C@@H](CC(C)C)[C@@H](O)CC(=O)O)C(C)C)C(C)C [SJ000287258-3, PEPSTATIN A] (Isovaleryl-VV[Sta]A[Sta]-OH)
CHRF288-11 %inh ([1]; CHRF288-11 %inh, 10 µM): 20.49% | CMK %inh ([2]; CMK %inh, 10 µM): -4.878% | CMS %inh ([3]; CMS %inh, 10 µM): 1.08% | M07e %inh ([4]; M07e %inh, 10 µM): 1.266% | ML-2 %inh ([5]; ML-2 %inh, 10 µM): 1.096% | MOLM-13 %inh ([6]; MOLM-13 %inh, 10 µM): -0.1246% | MV4-11 %inh ([7]; MV4-11 %inh, 10 µM): 0.8934% | U937 %inh ([8]; U937 %inh, 10 µM): 4.393%

CC(C)CC(=O)N[C@H](C(=O)N[C@H](C(=O)N[C@@H](CC(C)C)[C@@H](O)CC(=O)N[C@@H](C)C(=O)N[C@@H](CC(C)C)[C@@H](O)CC(=O)O)C(C)C)C(C)C [SJ000287258-4, PEPSTATIN A] (Isovaleryl-VV[Sta]A[Sta]-OH)
CHRF288-11 %inh ([1]; CHRF288-11 %inh, 10 µM): -1.709% | CMK %inh ([2]; CMK %inh, 10 µM): -1.598% | CMS %inh ([3]; CMS %inh, 10 µM): 2.288% | M07e %inh ([4]; M07e %inh, 10 µM): -0.4461% | ML-2 %inh ([5]; ML-2 %inh, 10 µM): -2.254% | MOLM-13 %inh ([6]; MOLM-13 %inh, 10 µM): 0.9923% | MV4-11 %inh ([7]; MV4-11 %inh, 10 µM): 2.97% | U937 %inh ([8]; U937 %inh, 10 µM): -1.362%

C=CC1=C(C(=O)O)N2C(=O)[C@@H](NC(=O)/C(=N\OCC(=O)O)c3csc(N)n3)[C@H]2SC1 [SJ000287284-2, CEFIXIME]
CHRF288-11 %inh [1]: -7.075% | CMK %inh [2]: 0.8991% | CMS %inh [3]: -2.931% | M07e %inh [4]: -4.21% | ML-2 %inh [5]: -0.1874% | MOLM-13 %inh [6]: 0.1743% | MV4-11 %inh [7]: -3.36% | U937 %inh [8]: 0.1666%

CN(CCCCCCCCCCN(C)C(=O)Oc1cccc([N+](C)(C)C)c1)C(=O)Oc1cccc([N+](C)(C)C)c1 [SJ000287334-2, DEMECARIUM BROMIDE]
CHRF288-11 %inh ([1]; CHRF288-11 %inh, 10 µM): 5.292% | CMK %inh ([2]; CMK %inh, 10 µM): 0.3844% | CMS %inh ([3]; CMS %inh, 10 µM): 0.249% | M07e %inh ([4]; M07e %inh, 10 µM): 6.779% | ML-2 %inh ([5]; ML-2 %inh, 10 µM): 3.342% | MOLM-13 %inh ([6]; MOLM-13 %inh, 10 µM): 14.75% | MV4-11 %inh ([7]; MV4-11 %inh, 10 µM): 26.64% | U937 %inh ([8]; U937 %inh, 10 µM): 24.11%
